Inconclusive results and toxic doses are left out. No stated cut-off is given here; in the data, active means T/C of 150% or more; inactive means T/C below 125%.
Tested on: L1210 leukemia ip in BDF1 mice, survival T/C
Experiment: NCI In Vivo Anticancer Drug Screen. Data for tumor model L1210 Leukemia (intraperitoneal) in B6D2F1 (BDF1) mice
Details: endpoint: mean survival time, higher = longer survival
Procedure, shortened: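 In this screen, tumor-bearing mice given compound are compared to those given vehicle, and their survival values are reported as a treated-to-control quotient.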

[1] = dose: 100.0 mg/kg/injection, schedule: Q01DX001 (ip), vehicle: saline
[2] = dose: 200.0 mg/kg/injection, schedule: Q01DX001 (ip), vehicle: saline
[3] = dose: 50.0 mg/kg/injection, schedule: Q01DX001 (ip), vehicle: carboxymethylcellulose (CMC)
[4] = dose: 100.0 mg/kg/injection, schedule: Q01DX001 (ip), vehicle: carboxymethylcellulose (CMC)
[5] = dose: 200.0 mg/kg/injection, schedule: Q01DX001 (ip), vehicle: carboxymethylcellulose (CMC)
[6] = dose: 400.0 mg/kg/injection, schedule: Q01DX001 (ip), vehicle: carboxymethylcellulose (CMC)
[7] = dose: 100.0 mg/kg/injection, schedule: Q04DX003 (ip), vehicle: saline with Tween-80
[8] = dose: 200.0 mg/kg/injection, schedule: Q04DX003 (ip), vehicle: saline with Tween-80
[9] = dose: 400.0 mg/kg/injection, schedule: Q04DX003 (ip), vehicle: saline with Tween-80
[10] = dose: 100.0 mg/kg/injection, schedule: Q04DX003 (ip), vehicle: Klucel (hydroxypropylcellulose) (HPC)
[11] = dose: 200.0 mg/kg/injection, schedule: Q04DX003 (ip), vehicle: Klucel (hydroxypropylcellulose) (HPC)
[12] = dose: 400.0 mg/kg/injection, schedule: Q04DX003 (ip), vehicle: Klucel (hydroxypropylcellulose) (HPC)
[13] = dose: 100.0 mg/kg/injection, schedule: Q04DX002 (ip), vehicle: Klucel (hydroxypropylcellulose) (HPC)
[14] = dose: 200.0 mg/kg/injection, schedule: Q04DX002 (ip), vehicle: Klucel (hydroxypropylcellulose) (HPC)
[15] = dose: 400.0 mg/kg/injection, schedule: Q04DX002 (ip), vehicle: Klucel (hydroxypropylcellulose) (HPC)
[16] = dose: 400.0 mg/kg/injection, schedule: Q01DX001 (ip), vehicle: saline
[17] = dose: 100.0 mg/kg/injection, schedule: Q01DX009 (ip), vehicle: saline
[18] = dose: 200.0 mg/kg/injection, schedule: Q01DX009 (ip), vehicle: saline
[19] = dose: 50.0 mg/kg/injection, schedule: Q01DX009 (ip), vehicle: saline

Measured: T/C

Nc1nc(N)c2cc(N(CCO)CCO)ccc2n1
inactive: dose: 50.0 mg/kg/injection, schedule: Q01DX001 (ip), vehicle: saline 101 % of control | [1] 95 % of control | [2] 95 % of control

COc1ccc(C(=O)CCC(=O)O)cc1OC
inactive: [3] 97 % of control | [4] 100 % of control | [5] 92 % of control | [6] 92 % of control

O=P(CCCc1ccccc1)(CCCc1ccccc1)Oc1cccc(C(F)(F)F)c1
inactive: [7] 90 % of control | [8] 92 % of control | [9] 101 % of control

O=C(N/N=C/c1ccccc1)c1cc([N+](=O)[O-])cc([N+](=O)[O-])c1
inactive: [10] 90 % of control | [11] 108 % of control | [12] 101 % of control

CCOC(=O)c1ccc(NC(=O)Nc2cccc(Cl)c2)cc1
inactive: dose: 3.0 mg/kg/injection, schedule: Q01DX009 (ip), vehicle: Klucel (hydroxypropylcellulose) (HPC) 94 % of control | dose: 6.0 mg/kg/injection, schedule: Q01DX009 (ip), vehicle: Klucel (hydroxypropylcellulose) (HPC) 107 % of control | dose: 12.0 mg/kg/injection, schedule: Q01DX009 (ip), vehicle: Klucel (hydroxypropylcellulose) (HPC) 94 % of control | dose: 25.0 mg/kg/injection, schedule: Q01DX009 (ip), vehicle: Klucel (hydroxypropylcellulose) (HPC) 101 % of control | dose: 100.0 mg/kg/injection, schedule: Q01DX009 (ip), vehicle: Klucel (hydroxypropylcellulose) (HPC) 93 % of control

O=C(Nc1ccc(Cl)cc1C(=O)c1ccccc1)c1ccc([N+](=O)[O-])cc1
inactive: [13] 89 % of control | [14] 95 % of control | [15] 92 % of control

[N-]=[N+]=Nc1c2ccccc2nc2ccccc12
inactive: dose: 2.0 mg/kg/injection, schedule: Q01DX001 (ip), vehicle: saline 92 % of control | dose: 4.0 mg/kg/injection, schedule: Q01DX001 (ip), vehicle: saline 94 % of control | dose: 8.0 mg/kg/injection, schedule: Q01DX001 (ip), vehicle: saline 103 % of control

CC(=O)N(CCN(Cc1ccc(Oc2ccc([N+](=O)[O-])cc2[N+](=O)[O-])cc1)C(C)=O)CCN(Cc1ccc(Oc2ccc([N+](=O)[O-])cc2[N+](=O)[O-])cc1)C(C)=O
inactive: dose: 25.0 mg/kg/injection, schedule: Q01DX009 (ip), vehicle: other 102 % of control | dose: 50.0 mg/kg/injection, schedule: Q01DX009 (ip), vehicle: other 97 % of control | dose: 100.0 mg/kg/injection, schedule: Q01DX009 (ip), vehicle: other 96 % of control | dose: 200.0 mg/kg/injection, schedule: Q01DX009 (ip), vehicle: other 96 % of control | dose: 400.0 mg/kg/injection, schedule: Q01DX009 (ip), vehicle: other 93 % of control

Cc1ccccc1Sc1cc2ccccc2c2ccccc12
inactive: [1] 94 % of control | dose: 100.0 mg/kg/injection, schedule: Q01DX009 (ip), vehicle: saline with Tween-80 96 % of control | [2] 97 % of control | dose: 200.0 mg/kg/injection, schedule: Q01DX009 (ip), vehicle: saline with Tween-80 98 % of control | [16] 94 % of control | dose: 400.0 mg/kg/injection, schedule: Q01DX009 (ip), vehicle: saline with Tween-80 101 % of control

O=C(O)c1ccc(CCCCl)cc1
inactive: dose: 12.5 mg/kg/injection, schedule: Q01DX001 (ip), vehicle: Klucel (hydroxypropylcellulose) (HPC) 98 % of control | dose: 25.0 mg/kg/injection, schedule: Q01DX001 (ip), vehicle: Klucel (hydroxypropylcellulose) (HPC) 103 % of control | dose: 50.0 mg/kg/injection, schedule: Q01DX001 (ip), vehicle: Klucel (hydroxypropylcellulose) (HPC) 94 % of control

C/C(=N/Nc1ccc2c(O)cc(S(=O)(=O)O)cc2c1)c1ccc(Cl)cc1
inactive: dose: 75.0 mg/kg/injection, schedule: Q01DX009 (ip), vehicle: saline 101 % of control | dose: 150.0 mg/kg/injection, schedule: Q01DX009 (ip), vehicle: saline 98 % of control | dose: 300.0 mg/kg/injection, schedule: Q01DX009 (ip), vehicle: saline 96 % of control

CC1Nc2ccccc2NC1C (stereo not given)
inactive: [1] 98 % of control

NN(C(=O)c1ccc([N+](=O)[O-])cc1)c1ccccc1
inactive: dose: 75.0 mg/kg/injection, schedule: Q01DX001 (ip), vehicle: saline 95 % of control | dose: 150.0 mg/kg/injection, schedule: Q01DX001 (ip), vehicle: saline 93 % of control | dose: 300.0 mg/kg/injection, schedule: Q01DX001 (ip), vehicle: saline 90 % of control

Cc1cc([N+](=O)[O-])ccc1O
inactive: [1] 100 % of control | [2] 100 % of control

COC1OC(COC(=O)c2ccccc2)C(OC(=O)N(C)c2ccccc2)C1OC (stereo not given)
inactive: [7] 98 % of control | [8] 92 % of control | [9] 95 % of control

COC(=O)C1C(C(=O)OC)C2C3OC(=O)C(C2C(=O)OC)C1C3C (stereo not given)
inactive: [1] 103 % of control | [17] 100 % of control | [2] 98 % of control | [18] 103 % of control | [16] 101 % of control | dose: 400.0 mg/kg/injection, schedule: Q01DX009 (ip), vehicle: saline 87 % of control

CCOC(=O)Nc1ccc2c(c1)/C(=N/O)c1ccccc1-2
inactive: [4] 94 % of control | [5] 91 % of control | [6] 91 % of control

COc1ccc(OC)c(NC(=S)NNC(=S)NNc2ccccc2)c1
inactive: [13] 101 % of control | [14] 104 % of control | [15] 93 % of control

O=C1NC2(CCCCC2)NC12CCCCC2
inactive: dose: 25.0 mg/kg/injection, schedule: Q01DX009 (ip), vehicle: saline 118 % of control | [19] 110 % of control | [17] 106 % of control

C=Nc1ccc(Cl)cc1
inactive: [3] 98 % of control | [4] 93 % of control | [5] 98 % of control

c1ccc(COc2ccc(OCc3ccccc3)cc2)cc1
inactive: [19] 93 % of control | [17] 98 % of control | [10] 87 % of control | [18] 93 % of control | [11] 105 % of control | [12] 94 % of control

CC(C)OC(=O)c1cc(C(=O)OC(C)C)cc(S(N)(=O)=O)c1
inactive: dose: 100.0 mg/kg/injection, schedule: Q01DX001 (ip), vehicle: other 106 % of control | dose: 200.0 mg/kg/injection, schedule: Q01DX001 (ip), vehicle: other 98 % of control | dose: 400.0 mg/kg/injection, schedule: Q01DX001 (ip), vehicle: other 95 % of control

O=COC1CC2CCC1C2 (stereo not given)
inactive: dose: 100.0 mg/kg/injection, schedule: Q04DX002 (ip), vehicle: saline 95 % of control | dose: 200.0 mg/kg/injection, schedule: Q04DX002 (ip), vehicle: saline 98 % of control | dose: 400.0 mg/kg/injection, schedule: Q04DX002 (ip), vehicle: saline 100 % of control

Cc1cc(=O)oc2c(OC(=O)N(CCCl)CCCl)c(OC(=O)N(CCCl)CCCl)ccc12
inactive: dose: 25.0 mg/kg/injection, schedule: Q04DX002 (ip), vehicle: Klucel (hydroxypropylcellulose) (HPC) 90 % of control | dose: 50.0 mg/kg/injection, schedule: Q04DX002 (ip), vehicle: Klucel (hydroxypropylcellulose) (HPC) 94 % of control | [13] 97 % of control | [14] 90 % of control | [15] 103 % of control

From PubChem BioAssay AID248 (DTP/NCI, 2004)
